Data on 17 compounds can be found in patent US3941850A, “α,α,α',α'-TETRAKIS(4-HYDROXY-3,5-DISUBSTITUTED PHENYL)XYLENE” (The Quaker Oats Company, priority 1974, dated 1976).

The nature of data set [1]: Antioxidant evaluation in cis-polyisoprene (IR carbonyl band, film in oven). Particulars: 130°C oven, 0.100 g antioxidant, until carbonyl band exceeded 6 cm. As for the experimental part: A number of candidate antioxidants were evaluated in cis-polyisoprene. Cis-polyisoprene was cut up into small pieces and dissolved overnight in a rapidly stirred solution of 500 ml of toluene. If the antioxidant was readily soluble in toluene, 0.100 g was then added to the cis-polyisoprenetoluene solution and stirred until it dissolved. If the antioxidant was not readily soluble in toluene it was dissolved in a small amount of an appropriate solvent and then added to the toluene solution. A sample of the solution was then taken up in a capillary dropper and 15 drops were placed on a circular sodium chloride plate, 1 inch in diameter. The plate was then put in a 130°C. oven for a few minutes to evaporate the toluene.
An infrared spectrum was run of the film on the plate. The plate was then put back in the oven. Every hour it was removed and another infrared spectrum was run. This procedure was repeated until appreciable oxidation had taken place as indicated by the appearance of a carbonyl band at 1700-1750 cm^^-1. The test was ended when the carbonyl band exceded 6 cm on a Perkin Elmer Infrared Spectophotometer, Model 710. This length is approximately equal to the length of the peak at 1450 cm^^-1.

A short description of data set [2]: Solubility in ethanol and toluene. It counts as physicochemical. The note with it: 27°C.
Data set [3] in a line: Heat aging test of polypropylene film. The note with it: 140°C, 5 mil film, 0.1 % by weight tetraphenolic derivative, 0 synergist. As for the experimental part: A number of candidate stabilizers were incorporated in 5 mil thick samples of polypropylene film, and the resulting materials evaluated by heat aging the films. In some of the tests where indicated dilaurylthiodipropionate was added as synergist.
In the heat aging test, polypropylene film samples 5 mil in thickness were maintained in an oven at 140°C. Each sample was tested for loss of structural integrity. The number of hours shown in the table are the total elapsed hours before the film cracked or embrittled when flexed. The film was embrittled when it crumbled to a powder.

For `CCC(C)c1cc(C(c2ccc(C(c3cc(C(C)CC)c(O)c(C(C)CC)c3)c3cc(C(C)CC)c(O)c(C(C)CC)c3)cc2)c2cc(C(C)CC)c(O)c(C(C)CC)c2)cc(C(C)CC)c1O` (centres unmarked) [Test 17], in data set [1], the “Maximum Protection” value worked out at 7 h. For the compound `Cc1cc(C(c2ccc(C(c3cc(C)c(O)c(C)c3)c3cc(C)c(O)c(C)c3)cc2)c2cc(C)c(O)c(C)c2)cc(C)c1O` [Test 28], in data set [2], the “Solubility, Ethanol” value worked out at 3 g/100 ml and the “Solubility, Toluene” value is “< .17 g/100 ml”.

For `Cc1cc(C(c2ccc(C(c3cc(C)c(O)c(C)c3)c3cc(C)c(O)c(C)c3)cc2)c2cc(C)c(O)c(C)c2)cc(C)c1O` [Test 12], the “Maximum Protection” value in data set [1] amounted to 8 h.

For the compound `CCCCC(CC)Cc1cc(C(c2ccc(C(c3cc(CC(CC)CCCC)c(O)c(CC(CC)CCCC)c3)c3cc(CC(CC)CCCC)c(O)c(CC(CC)CCCC)c3)cc2)c2cc(CC(CC)CCCC)c(O)c(CC(CC)CCCC)c2)cc(CC(CC)CCCC)c1O` (centres unmarked) [Test 20], in data set [1], the “Maximum Protection” value amounted to 3 h. In the case of `Cc1cc(C(c2ccc(C(c3cc(C)c(O)c(C)c3)c3cc(C)c(O)c(C)c3)cc2)c2cc(C)c(O)c(C)c2)cc(C)c1O` [Test 24], in data set [3], the “Oven Hours, Cracked” value was found to be 31 h and the “Oven Hours, Embrittled” value was 31 h. Take `CC(C)Cc1cc(C(c2ccc(C(c3cc(CC(C)C)c(O)c(CC(C)C)c3)c3cc(CC(C)C)c(O)c(CC(C)C)c3)cc2)c2cc(CC(C)C)c(O)c(CC(C)C)c2)cc(CC(C)C)c1O` [Test 18]: in data set [1], the “Maximum Protection” value was determined as 6 h.

In the case of `Oc1c(Cc2ccccc2)cc(C(c2ccc(C(c3cc(Cc4ccccc4)c(O)c(Cc4ccccc4)c3)c3cc(Cc4ccccc4)c(O)c(Cc4ccccc4)c3)cc2)c2cc(Cc3ccccc3)c(O)c(Cc3ccccc3)c2)cc1Cc1ccccc1` [Test 21], the “Maximum Protection” value in data set [1] was found to be 7 h.

Take `Cc1cc(C(c2ccc(C(c3cc(C)c(O)c(C(C)(C)C)c3)c3cc(C)c(O)c(C(C)(C)C)c3)cc2)c2cc(C)c(O)c(C(C)(C)C)c2)cc(C(C)(C)C)c1O` [Test 14]: the “Maximum Protection” value in data set [1] came out at 13 h. On the same count and under the same terms, under `Cc1cc(O)c(C(C)(C)C)cc1C(c1ccc(C(c2cc(C(C)(C)C)c(O)cc2C)c2cc(C(C)(C)C)c(O)cc2C)cc1)c1cc(C(C)(C)C)c(O)cc1C` [Test 15] stands 6 h. Take `Cc1cc(O)c(C(C)(C)C)cc1C(c1ccc(C(c2cc(C(C)(C)C)c(O)cc2C)c2cc(C(C)(C)C)c(O)cc2C)cc1)c1cc(C(C)(C)C)c(O)cc1C` [Test 31]: in data set [2], the “Solubility, Ethanol” value is recorded as greater than 9 g/100 ml and the “Solubility, Toluene” value is given as “< .17 g/100 ml”. `CC(C)(C)c1cc(C(c2ccc(C(c3cc(C(C)(C)C)c(O)c(C(C)(C)C)c3)c3cc(C(C)(C)C)c(O)c(C(C)(C)C)c3)cc2)c2cc(C(C)(C)C)c(O)c(C(C)(C)C)c2)cc(C(C)(C)C)c1O` [Test 19]: the “Maximum Protection” value in data set [1] was 16 h. For the compound `Cc1ccc(Cc2cc(C(c3ccc(C(c4cc(Cc5ccc(C)cc5)c(O)c(Cc5ccc(C)cc5)c4)c4cc(Cc5ccc(C)cc5)c(O)c(Cc5ccc(C)cc5)c4)cc3)c3cc(Cc4ccc(C)cc4)c(O)c(Cc4ccc(C)cc4)c3)cc(Cc3ccc(C)cc3)c2O)cc1` [Test 22], the “Maximum Protection” value in data set [1] came out at 6 h.

In the case of `Cc1cc(C(c2ccc(C(c3cc(C)c(O)cc3C)c3cc(C)c(O)cc3C)cc2)c2cc(C)c(O)cc2C)c(C)cc1O` [Test 26], in data set [3], the “Oven Hours, Cracked” value worked out at 30 h and the “Oven Hours, Embrittled” value amounted to 30 h. Regarding `CC(C)c1cc(C(c2ccc(C(c3cc(C(C)C)c(O)c(C(C)C)c3)c3cc(C(C)C)c(O)c(C(C)C)c3)cc2)c2cc(C(C)C)c(O)c(C(C)C)c2)cc(C(C)C)c1O` [Test 16], the “Maximum Protection” value in data set [1] was 7 h.

For `Cc1cc(C(c2ccc(C(c3cc(C)c(O)cc3C)c3cc(C)c(O)cc3C)cc2)c2cc(C)c(O)cc2C)c(C)cc1O` [Test 13], the “Maximum Protection” value in data set [1] stood at 3 h. Consider `Cc1cc(C(c2ccc(C(c3cc(C)c(O)c(C(C)(C)C)c3)c3cc(C)c(O)c(C(C)(C)C)c3)cc2)c2cc(C)c(O)c(C(C)(C)C)c2)cc(C(C)(C)C)c1O` [Test 30], for which, in data set [2], the “Solubility, Ethanol” value is greater than 9 g/100 ml and the “Solubility, Toluene” value is reported as greater than 9 g/100 ml. For `Cc1cc(C(c2ccc(C(c3cc(C)c(O)cc3C)c3cc(C)c(O)cc3C)cc2)c2cc(C)c(O)cc2C)c(C)cc1O` [Test 29], in data set [2], the “Solubility, Ethanol” value is listed as “< .14 g/100 ml” and the “Solubility, Toluene” value is reported as “< .17 g/100 ml”.
